Values after ≈ are worked out from the molar mass of the structure shown.
Columns and labels:
[1] = system: clinical isolates carrying AAC(3)-IV; experiment: MIC broth microdilution, AAC(3)-IV; assay type: cell-based; settings: for MIC: clinical isolates, IMM Univ. Zurich, AAC(3)-IV, read-out: MIC AAC(3)-IV
Method in brief: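 MICs obtained by broth microdilution following CLSI M07-A10, tested against clinical isolates from the Institute of Medical Microbiology, Univ. Zurich; values in μg/ml.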

[2] = system: clinical isolates carrying APH(3′)-I; experiment: MIC broth microdilution, APH(3′)-I; assay type: cell-based; settings: IMM Univ. Zurich
Excerpt: (§1) Minimal inhibitory concentrations (MIC) have been determined by broth microdilution assays (CLSI. Methods for Dilution Antimicrobial Susceptibility Tests for Bacteria That Grow Aerobically; Approved Standard—Tenth Edition. CLSI document M07-A10. Wayne, Pa.: Clinical and Laboratory Standards Institute; 2015.).
(§2) Minimal inhibitory concentrations (MICs, […]) against clinical isolates from Institute of Medical Microbiology, Univ. Zurich, and the IC50 values for bacterial, human mitochondrial and human cytosolic ribosomes are indicated.

[3] = system: clinical isolates carrying APH(3′)-II; experiment: MIC broth microdilution, APH(3′)-II; assay type: cell-based; settings: clinical isolates, IMM Univ. Zurich; APH(3′)-II; read-out: MIC APH(3′)-II
Excerpt: as §1, §2

[4] = system: clinical isolates carrying APH(3′)-III; experiment: MIC broth microdilution, APH(3′)-III; assay type: cell-based; settings: IMM Univ. Zurich
Excerpt: as §1, §2

[5] = system: clinical isolates carrying APH(3′)-VI; experiment: MIC broth microdilution, APH(3′)-VI; assay type: cell-based; settings: IMM Univ. Zurich
Excerpt: as §1, §2

bacterial ribosomes = experiment: in-vitro translation assay, bacterial ribosomes; assay type: biochemical
Method in brief: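 Cell-free translation; IC50 read-out. Mito = human chimeric ribosomes; cytosolic = rabbit reticulocyte ribosomes; bacterial ribosomes run in the same assay format.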

[6] = system: human mitochondrial ribosomes; experiment: in-vitro translation assay, human mitochondrial (human chimeric) ribosomes; assay type: biochemical
Method in brief: (§3)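 IC50 values come from cell-free in-vitro translation assays run separately with each ribosome type. Human mitochondrial ribosomes were represented by human chimeric ribosomes, and human cytosolic translation by rabbit reticulocyte ribosomes.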

[7] = system: human cytosolic ribosomes; experiment: in-vitro translation assay, human cytosolic ribosomes; assay type: biochemical
Method in brief: as §3

[8] = system: AG212, Escherichia coli ATCC25922; experiment: MIC reference strain AG212; assay type: cell-based; settings: Escherichia coli; reference strain ATCC25922; read-out: MIC AG212 E. coli
Method in brief: (§4)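 MICs by broth microdilution following CLSI M07-A10.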

[9] = system: AG215, Klebsiella pneumonia; experiment: MIC reference strain AG215; assay type: cell-based; settings: Klebsiella pneumoniae, reference strain; read-out: MIC AG215 K. pneumonia
Method in brief: as §4

[10] = system: AG290, Enterobacter cloacae; experiment: MIC reference strain AG290; assay type: cell-based; settings: Enterobacter cloacae; reference strain; read-out: MIC AG290 E. cloacae
Method in brief: as §4

[11] = system: AG220, Pseudomonas aeruginosa ATCC27853; experiment: MIC reference strain AG220; assay type: cell-based; settings: Pseudomonas aeruginosa, ATCC27853, reference strain ATCC27853; read-out: MIC AG220 P. aeruginosa
Method in brief: as §4

[12] = system: AG225, Acinetobacter baumannii pittii; experiment: MIC reference strain AG225; assay type: cell-based; settings: Acinetobacter baumannii, reference strain; read-out: MIC AG225 A. baumannii
Method in brief: as §4

ATCC19977 M. abcessus = experiment: MIC reference strain ATCC19977; assay type: cell-based; settings: read-out: MIC ATCC19977 M. abcessus
Method in brief: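 MIC values were determined by broth microdilution following the CLSI standard method for dilution susceptibility testing of aerobically growing bacteria.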

AG001 E. coli WT = experiment: Antibacterial activity, clinical isolate AG001; assay type: cell-based; parameters: unit not given here
Method in brief: (§5)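 MICs determined by broth microdilution following CLSI M07-A10 (2015) against clinical isolates.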

AG055 E. coli WT = experiment: Antibacterial activity, clinical isolate AG055; assay type: cell-based; parameters: unit not given here
Method in brief: as §5

AG003 E. coli AAC(3)-II = experiment: Antibacterial activity, clinical isolate AG003; assay type: cell-based
Method in brief: as §5

AG173 E. coli AAC(3)-IV = experiment: Antibacterial activity, clinical isolate AG173; assay type: cell-based
Method in brief: as §5

AG163 E. coli APH(3′)-I = experiment: Antibacterial activity, clinical isolate AG163; assay type: cell-based
Excerpt: as §1
Table 4 and 5 show the antibacterial activity of the compounds of the invention against bacterial reference strains (table 4) and against representative clinical isolates (table 5).

AG038 MRSA = experiment: Antibacterial activity, clinical isolate AG038; assay type: cell-based; parameters: unit not given here
Method in brief: as §5

[13] = system: AG039 MRSA AAC(6′)-I ANT(4′)-I; experiment: Antibacterial activity, clinical isolate AG039; assay type: cell-based
Method in brief: as §5

[14] = system: AG042 MRSA AAC(6′)-I ANT(4′)-I APH(2′); experiment: Antibacterial activity, clinical isolate AG042; assay type: cell-based; parameters: unit not given here
Method in brief: as §5

AG031 P. aer. APH(3′)-II = experiment: Antibacterial activity, clinical isolate AG031; assay type: cell-based; parameters: unit not given here
Method in brief: as §5

AG032 P. aer. APH(3′)-II = experiment: Antibacterial activity, clinical isolate AG032; assay type: cell-based; parameters: unit not given here
Method in brief: as §5

[15] = system: AG033 P. aer. APH(3′)-II AAC(6′)-I; experiment: Antibacterial activity, clinical isolate AG033; assay type: cell-based; parameters: unit not given here
Method in brief: as §5

[16] = system: Engineered E. coli pH430 WT; experiment: Activity, engineered E. coli pH430 WT; assay type: cell-based; settings: wild type
Method in brief: (§6)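 MIC values were determined by broth microdilution following the CLSI M07-A10 standard method for aerobically growing bacteria.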

[17] = system: Engineered E. coli AG103 armA; experiment: Activity against G1405-methylated 16S-rRNA, E. coli AG103 armA; assay type: cell-based
Method in brief: as §6

[18] = system: Engineered E. coli pH424 armA; experiment: Activity against G1405-methylated 16S-rRNA, E. coli pH424 armA; assay type: cell-based
Method in brief: as §6

[19] = system: Engineered E. coli pH425 rmtB; experiment: Activity against G1405-methylated 16S-rRNA, E. coli pH425 rmtB; assay type: cell-based
Method in brief: as §6

[20] = system: Engineered E. coli pH426 rmtC; experiment: Activity against G1405-methylated 16S-rRNA, E. coli pH426 rmtC; assay type: cell-based
Method in brief: as §6

[21] = system: Engineered E. coli pH427 rmtF; experiment: Activity against G1405-methylated 16S-rRNA, E. coli pH427 rmtF; assay type: cell-based
Method in brief: as §6

[22] = system: APH(3′, 5″) resistance determinant; experiment: Susceptibility to the APH(3′, 5″) resistance determinant; assay type: cell-based
Excerpt: as §1
The introduction of a formamido group results in compounds that display increased selectivity for the bacterial ribosome over the mitochondrial (wild type and A1555G mutant) ribosomes, predictive of reduced ototoxicity.

[23] = system: SZ380, Mycobacterium smegmatis; experiment: MIC reference strain SZ380; assay type: cell-based; settings: Mycolicibacterium smegmatis, reference strain; read-out: MIC SZ380 M. smegmatis
Method in brief: as §4

Row | Structure (SMILES) | MIC [1] [µg/mL] | MIC [2] [µg/mL] | MIC [3] [µg/mL] | MIC [4] [µg/mL] | MIC [5] [µg/mL] | IC50 (bacterial ribosomes) [µM] | IC50 [6] [µM] | IC50 [7] [µM] | MIC [8] [µg/mL] | MIC [9] [µg/mL] | MIC [10] [µg/mL] | MIC [11] [µg/mL] | MIC [12] [µg/mL] | Antibacterial activity AG001 E. coli WT (AG001 E. coli WT) | Antibacterial activity AG055 E. coli WT (AG055 E. coli WT) | Antibacterial activity AG003 E. coli AAC(3)-II (AG003 E. coli AAC(3)-II) | Antibacterial activity AG173 E. coli AAC(3)-IV (AG173 E. coli AAC(3)-IV) | Antibacterial activity AG163 E. coli APH(3′)-I (AG163 E. coli APH(3′)-I) | Antibacterial activity AG038 MRSA (AG038 MRSA) | Antibacterial activity AG039 MRSA AAC(6′)-I ANT(4′)-I [13] | further results
1 | CNC1C(OC2OC(CO)C(N)C(O)C2O)OC2CC(N)C(OC3C(N)CC(N)C(O)C3OC3OC(CNC=O)C(OCCN)C3O)OC2C1O [DC186, 5-β-[3-O-(2-Aminoethyl)-5-deoxy-5-formamido-D-ribofuranosyl] apramycin] | > 32 | 2 (≈ 2.7 µM) | 2 (≈ 2.7 µM) | 0.25 (≈ 0.337 µM) | 2 (≈ 2.7 µM) | 0.06 | 69 | 105 | 2 to 4 | 1 | 1 to 2 | 16 to 32 | 8 | 2 | 4 | 2 | 32 | 2 | 4 | 4-8 | MIC (ATCC19977 M. abcessus): 8 µg/mL (≈ 10.8 µM); Antibacterial activity AG042 MRSA AAC(6′)-I ANT(4′)-I APH(2′) [14]: 4-8; Antibacterial activity AG031 P. aer. APH(3′)-II (AG031 P. aer. APH(3′)-II): 16; Antibacterial activity AG032 P. aer. APH(3′)-II (AG032 P. aer. APH(3′)-II): 32; Antibacterial activity AG033 P. aer. APH(3′)-II AAC(6′)-I [15]: 64; Activity E. coli pH430 WT [16]: 2; Activity E. coli AG103 armA [17]: 0.5-1; Activity E. coli pH424 armA [18]: 2; Activity E. coli pH425 rmtB [19]: 2; Activity E. coli pH426 rmtC [20]: 4; Activity E. coli pH427 rmtF [21]: 2; susceptibility to the APH(3′, 5″) resistance determinant [22]: circumvent this problem
2 | CNC1C(OC2OC(CO)C(N)C(O)C2O)OC2CC(N)C(OC3C(N)CC(N)C(O)C3OC3OC(CNC=O)C(O)C3O)OC2C1O [DC177, 5-O-β-(5′″-Formamido-5′″-deoxy-D-ribefuranosyl) apramycin] | > 32 | 4 (≈ 5.72 µM) | 8 (≈ 11.4 µM) | 2 (≈ 2.86 µM) | 8 (≈ 11.4 µM) | 0.23 | 399 | > 500 | 8 | 4 | 8 | > 64 | 16 | 8 | 16 | 8 | >64 | 8 | 32 | 16-32 | MIC [23]: 2 µg/mL; MIC (ATCC19977 M. abcessus): 16 µg/mL (≈ 22.9 µM); Antibacterial activity AG042 MRSA AAC(6′)-I ANT(4′)-I APH(2′) [14]: 32; Antibacterial activity AG031 P. aer. APH(3′)-II (AG031 P. aer. APH(3′)-II): >32; Antibacterial activity AG032 P. aer. APH(3′)-II (AG032 P. aer. APH(3′)-II): >32; Antibacterial activity AG033 P. aer. APH(3′)-II AAC(6′)-I [15]: >32; Activity E. coli pH430 WT [16]: 8; Activity E. coli AG103 armA [17]: 2-4; Activity E. coli pH424 armA [18]: 8; Activity E. coli pH425 rmtB [19]: 8; Activity E. coli pH426 rmtC [20]: 16; Activity E. coli pH427 rmtF [21]: 8
3 | CNC1C(OC2OC(CO)C(N)C(O)C2O)OC2CC(N)C(OC3C(N)CC(N)C(O)C3OC3OC(CO)C(OC4OC(CN)C(O)C(O)C4N)C3O)OC2C1O (stereo not drawn) [DC138, 5-O-β-(Paromobiosyl) apramycin] | > 32 | 16 (≈ 19.2 µM) | 2 (≈ 2.4 µM) | 1 to 2 (≈ 1.2 to 2.4 µM) | 4 (≈ 4.81 µM) | 0.1 | 2.2 | 18 | 2 | 1 | 2 | 16 | 4 | 4 | 8 | 4 | 1-2 | 8 | 2-4 | 2-4 | activity against the IMM clinical isolates carrying the gene for AAC(3)-IV [1]: excellent antiribosomal and antibacterial activity; Antibacterial activity AG042 MRSA AAC(6′)-I ANT(4′)-I APH(2′) [14]: 2; Antibacterial activity AG031 P. aer. APH(3′)-II (AG031 P. aer. APH(3′)-II): 32-64; Antibacterial activity AG032 P. aer. APH(3′)-II (AG032 P. aer. APH(3′)-II): 64; Antibacterial activity AG033 P. aer. APH(3′)-II AAC(6′)-I [15]: 64; Activity E. coli pH430 WT [16]: 2; Activity E. coli AG103 armA [17]: <0.125; Activity E. coli pH424 armA [18]: 1; Activity E. coli pH425 rmtB [19]: 1; Activity E. coli pH426 rmtC [20]: 1; Activity E. coli pH427 rmtF [21]: 1; susceptibility to the APH(3′, 5″) resistance determinant [22]: susceptible

From patent US11485751B2, “Apramycin derivatives” (WAYNE STATE UNIVERSITY, priority 2017, dated 2022)
